Where “and” joins values, the source holds several entries; their conditions need not be identical. Identical values can stand only once. Like-named read-outs stand apart in the source and are kept apart here.
What was measured:
[1] = system: intracellular PAP in wild type yeast; test: Intracellular PAP concentration by GST-PST binding assay, wild type yeast; format: cell-based, S. cerevisiae
Procedure: (§1) Yeast were grown in CM/ura^− containing 2% galactose to mid-log phase. The cultures were washed extensively and resuspended in the CM/ura^−/met^− media with the noted inclusions. PAP was measured using the ligand binding assay described in Experimental Procedures. Intracellular PAP concentrations were normalized to the amount of soluble protein extracted from the cultures.
For the assay of intracellular PAP concentrations, appropriate yeast strains were grown in CM/ura^− to mid-log phase (OD600=1.0). The cells were centrifuged and washed extensively in sterile water. The cells were resuspended in CM/ura^−/met^− containing methionine (20 μg/ml), lithium, or chlorate as appropriate. The cultures were incubated with shaking at 30° C. At various time points, 2 ml of culture was removed and centrifuged. The cells were washed with 1 ml of water. 250 μl was centrifuged and resuspended in 200 μl K-lysis buffer. 200 μl of glass beads were added, and the cells were disrupted by vigorous bead beating. The amount of soluble protein in this extract was determined using a Bradford dye-binding assay (BioRad, Hercules, Calif., United States of America) with bovine serum albumin as a standard. The remaining 750 μl of washed cells was spun down and resuspended in 250 μl of 2 N HClO4. This was incubated at 4° C. for 20 min, when 250 μl of 1.8 N KOH, 0.4 N KHCO3 were added to neutralize and precipitate the HClO4. The extract was centrifuged at 4° C. to remove the debris, and the supernatant was lyophilized using a rotary evaporator. The dried extracts were frozen at −80° C. for no more than one week prior to use. Extracts were reconstituted in 100 μL of 200 mM HEPES, pH 7.5 and again centrifuged to remove debris. 5′ [^32P] 3′, 5′ PAP was created as described (Spiegelberg, 1999). The GST-PST assay was performed by mixing 10 μL of standard PAP, treated as above, or 10 μL of sample diluted approximately 1:1000 in K-lysis buffer, with 10 μL of radiolabeled PAP (approximately 10,000 CPM). Eighty microliters of a reaction mix containing 100 mM HEPES, pH 7.0, 5 mM DTT, 0.2 mg/ml BSA, and 1 μg of GST-PST were added to start the binding reaction. The reactions were allowed to equilibrate for at least one hour at room temperature. Following incubation, 20 μl of a 50:50 slurry of glutathione sepharose in K-lysis buffer was added. The tubes were incubated with gentle mixing for 10 min at room temperature. The protein with bound PAP was pulled down by centrifugation for 2 min at room temperature. 80 μl of the supernatant, containing free PAP, was removed to a scintillation vial and 200 μl of K-lysis buffer was added to wash the resin. The tubes were centrifuged again and the 200 μl wash was transferred to the original scintillation vials. Radioactivity was determined by adding 5 ml of […] ECONO2™ scintillation fluid (Fisher Scientific, Hampton, N.H., United States of America) and counted in a liquid scintillation counter. The counts were converted to percent isotope bound, and a standard curve was prepared by plotting percent bound vs. the logarithm of the PAP concentration. […]
The GST-PST binding assay was used to determine relative intracellular PAP concentrations in yeast strains grown under various conditions. The PAP concentration determined in the binding assay was normalized to the total soluble protein in parallel extracts, and background was eliminated by reporting only the signal that was sensitive to in vitro degradation by purified recombinant Hal2p. […]

[2] = biological target: T1, 1ptase D54A (aspartate to alanine) (Bos taurus, UniProt P21327, D54A); test: Lithium inhibition of 1ptase D54A mutant; format: biochemical, bovine
T1 sequence (P21327 1-400 D54A): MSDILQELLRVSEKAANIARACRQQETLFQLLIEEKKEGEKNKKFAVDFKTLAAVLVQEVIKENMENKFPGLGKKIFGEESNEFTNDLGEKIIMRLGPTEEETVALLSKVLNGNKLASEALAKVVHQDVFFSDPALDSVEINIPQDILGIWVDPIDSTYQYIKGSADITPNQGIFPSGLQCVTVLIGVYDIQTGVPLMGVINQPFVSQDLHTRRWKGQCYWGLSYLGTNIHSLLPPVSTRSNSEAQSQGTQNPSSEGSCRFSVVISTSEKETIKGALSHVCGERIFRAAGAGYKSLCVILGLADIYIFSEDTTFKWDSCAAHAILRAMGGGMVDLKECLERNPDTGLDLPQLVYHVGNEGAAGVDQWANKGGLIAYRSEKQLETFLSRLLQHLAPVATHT
Source text: Low concentrations of lithium and high concentrations of normally catalytic magnesium inhibit Impase and 1ptase uncompetitively with respect to substrate. The inhibitory effects of lithium and magnesium are mutually exclusive in Impase, implying that the inhibitory metals bind at the same or overlapping sites (Ganzhorn, 1990). Structural studies of 1ptase offered additional evidence. […] This was interpreted to mean that electron-poor lithium was bound at the second metal binding site, excluding the binding of electron-rich gadolinium, leading to a dearth of electron density at this site. This conclusion was supported by mutagenic data in which a residue that anchors the second metal binding site, Asp-54 (homologous to Impase Asp-47 (FIGS. 1 and 2)), was mutated to alanine.
FIG. 24 summarizes the results of mutagenic and crystallography experiments representing the lithium binding site in 1ptase. […] When 1ptase was crystallized in the presence of metal and lithium, however, the density at metal site 2 disappeared. This is explained by the fact that lithium, having only 2 electrons, is invisible (right panel). Therefore, loss of occupancy at metal site 2 is a result of invisible lithium binding there, excluding the binding of more electron rich metals. […]

patients = settings: cited from earlier work
[3] = system: intracellular PAP in met14Δ cells; format: cell-based, S. cerevisiae
Procedure: as §1
(§2) For the assay of intracellular PAP concentrations, appropriate yeast strains were grown in CM/ura^− to mid-log phase (OD600=1.0). The cells were centrifuged and washed extensively in sterile water. The cells were resuspended in CM/ura^−/met^− containing methionine (20 μg/ml), lithium, or chlorate as appropriate. The cultures were incubated with shaking at 30° C. At various time points, 2 ml of culture was removed and centrifuged. The cells were washed with 1 ml of water. 250 μl was centrifuged and resuspended in 200 μl K-lysis buffer. 200 μl of glass beads were added, and the cells were disrupted by vigorous bead beating. The amount of soluble protein in this extract was determined using a Bradford dye-binding assay (BioRad, Hercules, Calif., United States of America) with bovine serum albumin as a standard. The remaining 750 μl of washed cells was spun down and resuspended in 250 μl of 2 N HClO4. This was incubated at 4° C. for 20 min, when 250 μl of 1.8 N KOH, 0.4 N KHCO3 were added to neutralize and precipitate the HClO4. The extract was centrifuged at 4° C. to remove the debris, and the supernatant was lyophilized using a rotary evaporator. The dried extracts were frozen at −80° C. for no more than one week prior to use. Extracts were reconstituted in 100 μL of 200 mM HEPES, pH 7.5 and again centrifuged to remove debris. 5′ [^32P] 3′, 5′ PAP was created as described (Spiegelberg, 1999). The GST-PST assay was performed by mixing 10 μL of standard PAP, treated as above, or 10 μL of sample diluted approximately 1:1000 in K-lysis buffer, with 10 μL of radiolabeled PAP (approximately 10,000 CPM). Eighty microliters of a reaction mix containing 100 mM HEPES, pH 7.0, 5 mM DTT, 0.2 mg/ml BSA, and 1 μg of GST-PST were added to start the binding reaction. The reactions were allowed to equilibrate for at least one hour at room temperature. Following incubation, 20 μl of a 50:50 slurry of glutathione sepharose in K-lysis buffer was added. The tubes were incubated with gentle mixing for 10 min at room temperature. The protein with bound PAP was pulled down by centrifugation for 2 min at room temperature. 80 μl of the supernatant, containing free PAP, was removed to a scintillation vial and 200 μl of K-lysis buffer was added to wash the resin. The tubes were centrifuged again and the 200 μl wash was transferred to the original scintillation vials. Radioactivity was determined by adding 5 ml of […] ECONO2™ scintillation fluid (Fisher Scientific, Hampton, N.H., United States of America) and counted in a liquid scintillation counter. The counts were converted to percent isotope bound, and a standard curve was prepared by plotting percent bound vs. the logarithm of the PAP concentration. This standard curve was used to back-calculate the PAP concentration in the unknown samples.
(§3) The GST-PST binding assay was used to determine relative intracellular PAP concentrations in yeast strains grown under various conditions. The PAP concentration determined in the binding assay was normalized to the total soluble protein in parallel extracts, and background was eliminated by reporting only the signal that was sensitive to in vitro degradation by purified recombinant Hal2p. The assay was characterized further by analyzing the intracellular PAP concentration of wild type yeast grown in the presence of lithium.

[4] = system: intracellular PAP in met3Δ cells; format: cell-based, S. cerevisiae
Procedure: as §1, §2, §3

## [Li] [lithium]
[1]
  Fold increase of PAP concentration: at least 85.8 fold
[1]; wild type, 100 mM LiCl, 8 hr, absence of methionine, normalized to soluble protein
  Intracellular PAP concentration: 42.9 nmol/mg
[2]
  Ki: 100 mM
patients; patients taking the drug
  Occurrence of acquired nephrogenic diabetes insipidus (NDI): 20-50%
patients; patients undergoing lithium therapy
  Patients reporting clinically significant polyuria: Up to 20%
[3]; met14Δ expressing hPAPSS2, 100 mM lithium vs absence of lithium
  Fold increase of PAP concentration: ≥ 65.4 fold
[3]; met14Δ expressing hPAPSS2, 100 mM lithium, eight hours
  Intracellular PAP concentration: ~32.8 nmol/mg and 32.7 nmol/mg
[3]; met14Δ with empty vector, independent of methionine and lithium concentration, data not shown
  Intracellular PAP concentration: less than 0.5 nmol PAP/mg soluble protein
[4]; met3Δ expressing hPAPSS2, 100 mM lithium vs absence of lithium
  Fold increase of PAP concentration: ≥ 72.4 fold
[4]; met3Δ with empty vector, independent of methionine and lithium concentration, data not shown
  Intracellular PAP concentration: less than 0.5 nmol PAP/mg soluble protein

— patent US20050037450A1, “Novel targets for lithium therapy” (Duke University, priority 2002, published 2005)
